# pIC50: −log10 of the molar value.
# Target: T1, FAK enzyme (6 His tagged kinase domain, GenBank NP—722560) (Homo sapiens, UniProt Q05397)
# T1 construct: 6 His; made in house; host or cells: insect cell culture infected with baculovirus
# Assay: In vitro enzyme assay (a): sandwich ELISA of FAK tyrosine kinase activity on polyGAT peptide, TMB colorimetric endpoint
# Format: biochemical
# Settings: in vitro Enzyme Assay test (a); ATP at Km; geometric mean of n > 1 measurements, values marked * tested once
# Protocol: (a) In Vitro Enzyme Assay
# A sandwich ELISA assay with a 3,3′,5,5′-tetramethyl benzidine (TMB) colorimetric endpoint was used in order to determine the level of effect of selected compounds on inhibition of FAK protein tyrosine kinase enzyme activity. A synthetic tyrosine containing peptide is coated onto a plastic surface, the level of phosphorylation of these tyrosine residues by the kinase enzyme in the presence of inhibitors is measured using an antibody that binds specifically to phosphorylated tyrosine residues. The amount of antibody bound to substrate is proportional to the level of enzyme catalysis.
# Assay Protocol to Identify Inhibitors of Focal Adhesion Kinase (FAK).
# A PlateMate Plus™ 384 automated liquid handling unit with a 100 μl disposable tip head was used to make all the non compound reagent additions and a Tecan 384PW plate washer with 384 head was used for all wash steps. Initially Matrix 384 well polystyrene plates (Cat #:4311) were coated with 40 μl/well of a 0.0375 mg/ml solution of synthetic poly peptide (polyGAT, Sigma Cat #:P3899) dissolved in phosphate buffered saline (PBS). Plates were stored overnight at 4° C. Immediately before use the coating solution was aspirated out and each well washed with 2×100 μl of PBS+0.05% Tween 20. To remove surplus phosphate, the wells were then washed with 2×100 μl 50 mM HEPES buffer pH 7.4. Plates were blotted dry before the addition of compounds. Compounds were tested over a 12 point dose range, a Labcyte Echo 550 was used to dispense compounds in nl volumes and back fill with DMSO. The final concentration of compound in the assay was dependent on the starting concentration of compound. For a 10 mM stock compound the final assay dose ranged from 100 μM down to […]. Control wells containing 120 nl DMSO (Max) or 120 nl of 10 mM staurosporine (LC Laboratories, Boston, USA Cat #: S-9300) (Min) were included in each plate. 10 ul of 5% dimethyl sulfoxide v/v (DMSO, Fisher Scientific) was added to each well immediately prior to addition of 10 μl of a co-factor solution containing 80 mM MgCl2 (Sigma Cat #: M1028); 80 mM MnCl2 (Sigma Cat #: M1787); ATP at a concentration calculated to enable the initial reaction velocity to progress at half the maximum velocity (Km for ATP) (Sigma Cat #:A7699). A final addition of 20 μl of enzyme solution containing 100 mM HEPES pH7.4; 0.2 mM sodium vanadate (Sigma Cat #:S6508); 0.2 g/l bovine serum albumin (BSA, Sigma Cat #: A7888); 0.2 mM dithioreitol (Sigma Cat #: 5545); 0.1% Triton X100 (Sigma Cat #:X100); FAK enzyme (20 μl/ml) was made to each well to start the assay running FAK enzyme was generated from an insect culture infected with baculo virus containing the DNA sequence encoding the 6 His tagged kinase domain (GenBank NP_722560).
# Plates were left at room temperature for 25 minutes before 10 μl of 500 mM ethylenediaminetetraacetic acid (EDTA) was added to stop the assay and the wells were immediately washed 3×100 μl with PBS+0.05% Tween 20. A 4G10 antibody (Millipore Cat #: 16-105; 16-184) with a directly conjugated horse radish peroxidase (HRP) was used to detect the phosphorylation of the substrate by the FAK. 40 μl of PBS+0.05% Tween 20 containing 0.5% BSA and 0.1 μl/ml antibody was added to each well and left for 1 hour at room temperature to allow the antibody to bind. After this period the wells were again washed with 3×100 μl of PBS+0.05% Tween 20. TMB (Sigma Cat #: T2885) was used as a substrate for the HRP. Phosphate-citrate buffer was made up using capsules provided by Sigma (Cat #: P4922) following the manufacturers guidelines. TMB was dissolved at a concentration of 1 mg/ml in DMSO and let down to a final concentration of 0.05 mg/ml with the phosphor-citrate buffer. 40 μl of the TMB solution was added to each assay well and left for 30 minutes for the blue colour to develop. […]
# T1 sequence (Q05397 422-680 limits assumed): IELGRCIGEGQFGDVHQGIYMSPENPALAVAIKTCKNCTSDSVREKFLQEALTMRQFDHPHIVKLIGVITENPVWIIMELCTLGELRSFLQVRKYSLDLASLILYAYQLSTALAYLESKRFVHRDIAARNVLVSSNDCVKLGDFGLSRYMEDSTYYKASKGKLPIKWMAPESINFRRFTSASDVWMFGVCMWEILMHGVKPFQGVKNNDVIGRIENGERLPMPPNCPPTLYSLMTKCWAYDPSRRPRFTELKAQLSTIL
row,pIC50,SMILES
1,5.82,"CNC(=O)c1ccccc1Nc1cc(Nc2cnn(CC(=O)N3CCCC3)c2)ncc1F [Example 4.01, 2-[[5-Fluoro-2-[[1-(2-oxo-2-pyrrolidin-1-yl-ethyl)pyrazol-4-yl]amino]-4-pyridyl]amino]-N-methyl-benzamide]"
2,5.88,"CNC(=O)c1ccccc1Nc1cc(Nc2cnn(CC(=O)N(C)C3CCN(C)CC3)c2)ncc1F [Example 4.02, 2-[[5-fluoro-2-[[1-[2-[methyl-(1-methyl-4-piperidyl)amino]-2-oxo-ethyl]pyrazol-4-yl]amino]-4-pyridyl]amino]-N-methyl-benzamide]"
3,5.67,CNC(=O)c1ccccc1Nc1cc(Nc2cnn(CC(=O)N(C)CCOC)c2)ncc1F [Example 4.03]
4,6.01,"CNC(=O)c1ccccc1Nc1cc(Nc2cnn(CC(=O)N3CCCN(C)CC3)c2)ncc1F [Example 4.04, 2-[[5-fluoro-2-[[1-[2-(4-methyl-1,4-diazepan-1-yl)-2-oxo-ethyl]pyrazol-4-yl]amino]-4-pyridyl]amino]-N-methyl-benzamide]"
5,5.89,"CNC(=O)c1ccccc1Nc1cc(Nc2cnn(CC(=O)N3CCOCC3)c2)ncc1F [Example 4.05, 2-[[5-fluoro-2-[[1-(2-morpholino-2-oxo-ethyl)pyrazol-4-yl]amino]-4-pyridyl]amino]-N-methyl-benzamide]"
6,5.98,"CNC(=O)c1ccccc1Nc1cc(Nc2cnn(CC(=O)N3CCC(N(C)C)CC3)c2)ncc1F [Example 4.06, 2-[[2-[[1-[2-(4-dimethylamino-1-piperidyl)-2-oxo-ethyl]pyrazol-4-yl]amino]-5-fluoro-4-pyridyl]amino]-N-methyl-benzamide]"
7,6.24,"CNC(=O)c1ccccc1Nc1cc(Nc2cnn(CC(=O)N3CCN(C)CC3)c2)ncc1F [Example 4.07, 2-[[5-fluoro-2-[[1-[2-(4-methylpiperazin-1-yl)-2-oxo-ethyl]pyrazol-4-yl]amino]-4-pyridyl]amino]-N-methyl-benzamide]"
8,5.66,"CNC(=O)c1ccccc1Nc1cc(Nc2cnn(C)c2)ncc1F [Example 4.08, 2-[[5-Fluoro-2-[(1-methylpyrazol-4-yl)amino]-4-pyridyl]amino]-N-methyl-benzamide]"
9,5.47,"CNC(=O)c1ccccc1Nc1cc(Nc2cnn(C3CCOCC3)c2)ncc1F [Example 4.09, 2-[[5-fluoro-2-[(1-tetrahydropyran-4-ylpyrazol-4-yl)amino]-4-pyridyl]amino]-N-methyl-benzamide]"
10,5.75,"CNC(=O)c1ccccc1Nc1cc(Nc2cn(C)nc2C)ncc1F [Example 4.10, 2-[[2-[(1,3-dimethylpyrazol-4-yl)amino]-5-fluoro-4-pyridyl]amino]-N-methyl-benzamide]"
11,5.68,"CNC(=O)c1ccccc1Nc1cc(Nc2cnn(C3CCN(C)CC3)c2)ncc1F [Example 4.11, 2-[[5-fluoro-2-[[1-(1-methyl-4-piperidyl)pyrazol-4-yl]amino]-4-pyridyl]amino]-N-methyl-benzamide]"
12,6.53,"COCCN(C)C(=O)Cn1cc(Nc2cc(Nc3cccc4c3C(=O)N(C)CC4)c(F)cn2)cn1 [Example 4.24, 2-[4-[[5-fluoro-4-[(2-methyl-1-oxo-3,4-dihydroisoquinolin-8-yl)amino]-2-pyridyl]amino]pyrazol-1-yl]-N-(2-methoxyethyl)-N-methyl-acetamide]"

# More lines, now with the values behind:
row,SMILES,pIC50
1,"CNC(=O)c1ccc(F)cc1Nc1cc(Nc2cn(C)nc2C)ncc1Cl [Example 3.42, 2-[[5-chloro-2-[(1,3-dimethylpyrazol-4-yl)amino]-4-pyridyl]amino]-4-fluoro-N-methyl-benzamide]",8.30
2,"Cc1nn(C)cc1Nc1cc(Nc2cccc3c2C(=O)N(C)CC3)c(F)cn1 [Example 4.12, 8-[[2-[(1,3-Dimethylpyrazol-4-yl)amino]-5-fluoro-4-pyridyl]amino]-2-methyl-3,4-dihydroisoquinolin-1-one]",6.92
3,"CN1CCc2cccc(Nc3cc(Nc4cnn([C@@H]5CCC(=O)NC5)c4)ncc3F)c2C1=O [Example 4.13, 8-[[5-fluoro-2-[[1-[(3R)-6-oxopiperidin-3-yl]pyrazol-4-yl]amino]pyridin-4-yl]amino]-2-methyl-3,4-dihydroisoquinolin-1-one]",5.99
4,"CN1CCc2cccc(Nc3cc(Nc4cnn(C)c4)ncc3F)c2C1=O [Example 4.14, 8-[[5-fluoro-2-[(1-methylpyrazol-4-yl)amino]-4-pyridyl]amino]-2-methyl-3,4-dihydroisoquinolin-1-one]",6.39
5,"CN1CCc2cccc(Nc3cc(Nc4cnn(C5CCOCC5)c4)ncc3F)c2C1=O [Example 4.15, 8-[[5-fluoro-2-[(1-tetrahydropyran-4-ylpyrazol-4-yl)amino]-4-pyridyl]amino]-2-methyl-3,4-dihydroisoquinolin-1-one]",6.34
6,"CN1CCC(n2cc(Nc3cc(Nc4cccc5c4C(=O)N(C)CC5)c(F)cn3)cn2)CC1 [Example 4.16, 8[[5-fluoro-2-[[1-(1-methyl-4-piperidyl)pyrazol-4-yl]amino]-4-pyridyl]amino]-2-methyl-3,4-dihydroisoquinolin-1-one]",6.33
7,"CN1CCc2cccc(Nc3cc(Nc4cnn(C5CCNCC5)c4)ncc3F)c2C1=O [Example 4.17, 8-[[5-Fluoro-2-[[1-(4-piperidyl)pyrazol-4-yl]amino]-4-pyridyl]amino]-2-methyl-3,4-dihydroisoquinolin-1-one]",6.72
8,"CN1CCc2cccc(Nc3cc(Nc4cnn(C5CCCNC5)c4)ncc3F)c2C1=O (stereo not shown) [Example 4.18, 8-[[5-fluoro-2-[[1-(3-piperidyl)pyrazol-4-yl]amino]-4-pyridyl]amino]-2-methyl-3,4-dihydroisoquinolin-1-one]",6.17
9,"CN1CCc2cccc(Nc3cc(Nc4ccn(C5CCNCC5)n4)ncc3F)c2C1=O [Example 4.19, 8-[[5-fluoro-2-[[1-(4-piperidyl)pyrazol-3-yl]amino]-4-pyridyl]amino]-2-methyl-3,4-dihydroisoquinolin-1-one]",7.08
10,"CN1CCc2cccc(Nc3cc(Nc4cnn(CC(=O)N5CCCC5)c4)ncc3F)c2C1=O [Example 4.20, 8-[[5-Fluoro-2-[[1-(2-oxo-2-pyrrolidin-1-yl-ethyl)pyrazol-4-yl]amino]-4-pyridyl]amino]-2-methyl-3,4-dihydroisoquinolin-1-one]",6.52
11,"CN(C)CCCNC(=O)Cn1cc(Nc2cc(Nc3cccc4c3C(=O)N(C)CC4)c(F)cn2)cn1 [Example 4.21, N-(3-dimethylaminopropyl)-2-[4-[[5-fluoro-4-[(2-methyl-1-oxo-3,4-dihydroisoquinolin-8-yl)amino]-2-pyridyl]amino]pyrazol-1-yl]acetamide]",6.73
12,"CN(C)CCNC(=O)Cn1cc(Nc2cc(Nc3cccc4c3C(=O)N(C)CC4)c(F)cn2)cn1 [Example 4.22, N-(2-dimethylaminoethyl)-2-[4-[[5-fluoro-4-[(2-methyl-1-oxo-3,4-dihydroisoquinolin-8-yl)amino]-2-pyridyl]amino]pyrazol-1-yl]acetamide]",6.44
13,"COCCNC(=O)Cn1cc(Nc2cc(Nc3cccc4c3C(=O)N(C)CC4)c(F)cn2)cn1 [Example 4.23, 2-[4-[[5-fluoro-4-[(2-methyl-1-oxo-3,4-dihydroisoquinolin-8-yl)amino]-2-pyridyl]amino]pyrazol-1-yl]-N-(2-methoxyethyl)acetamide]",6.35

# Reference: patent US8569298B2, “Pyridine compounds” (Astrazeneca AB, priority 2008, dated 2013)
